Test: amine content of the aqueous phase after heat-induced phase separation of an aqueous MCA/DMCA mixture
Details: 3 M MCA:DMCA 1:3 wt./wt. in water
Method: The phases were separated and the aqueous phase was analysed for determining the amine content.

Structure (SMILES): CNC1CCCCC1 [MCA, N-methylcyclohexylamine]
- MCA in aqueous phase (heated 24 h at 40 ° C.): 6940 mg/L
- MCA in aqueous phase (heated 24 h at 50 ° C.): 5630 mg/L
- MCA in aqueous phase (heated 24 h at 60 ° C.): 5090 mg/L
- MCA in aqueous phase (heated 24 h at 70 ° C.): 4520 mg/L
